Structures are written as SMILES.

Common to all, as to type: cell-based
In test [1] the test system is SK-OV-3 cells. The test can be described thus: FAK silencing combined with Docetaxel, Annexin V apoptosis by flow cytometry. As to conditions: SK-OV-3 cells transfected with FAK siRNA 50 nM for 24 hours, then 0.3 µM or 1 µM Docetaxel 48 hours; FAK silencing group compared with control siRNA group. On the technique in general: In flow cytometry, cells or beads pass a laser one at a time.

For test [2], the system named is mouse breast cancer 4T1 cells. The test can be described thus: Docetaxel/Eribulin and Defactinib: microscopy and CRT/Annexin-V/PI flow cytometry. The note with it: 48 hours, Defactinib 5 µM, Docetaxel 0.3 µM, Eribulin 0.1 µM, alone or combined with Defactinib. As for the experimental part:
4T1 cells were cultured in a monolayer in vitro in RPMI-1640 medium with 10% fetal bovine serum in a 37 °C, 5% CO2 incubator. Trypsin was used for routine digestion and passage treatment two to three times a week. When the cells were in the exponential growth phase and the adherent confluence reached 80%-90%, the cells were harvested and plated.
4T1 cells were digested with trypsin, and then the cells were collected and counted. Based on the counting results, the cells were diluted with the corresponding complete culture medium to a concentration of 50,000 cells per milliliter. Then the cells were plated in 12-well cell culture plates, with 2 ml of cell suspension per well, i.e., 100,000 cells.
(§1) After plating, the cells were cultured in a 37°C and 5% CO2 incubator.
After 24 hours of plating, the test compounds Defactinib, Docetaxel and Eribulin were added to different wells, respectively.
(§2) After 48 hours of drug action, the cells were photographed using a microscope, and then trypsinized and collected for flow cytometry staining.
The cells were washed twice with flow buffer (DPBS + 2% FBS). 0.5 µL of AF647 Anti-Calreticulin Antibody was added to each well, and mixed well. The cells were incubated at 4°C in the dark for 20 min. […]
(§3) After the assay, the cell positive rate was analyzed by Flowjo (V10) software.

Another test has as its system colon cancer CT26 cells. Description: CCK8 cell viability assay, Docetaxel with or without IN10018. As to conditions: Mus musculus, 72 hours, Docetaxel alone. As for the experimental part: CT26 cells were cultured with RPMI-1640 (Shanghai Basalmedia, catalog number: L210KJ, batch number: F210916) + 10% FBS (Gibco, catalog number: 10099-141c, batch number: 2158737cp), and passaged twice. When the cells were in good condition, they were placed in a 96-well plate, 3000 cells/well. After the cells were spread for 24 hours, the culture medium containing Docetaxel was added. 10 drug concentrations were set. The first concentration was 30 µM, which was serially diluted 3-fold, and the last one was the control, with the drug concentration of 0. Three compound wells were set for each drug concentration. At the same time, another group of cells was established with the same drug concentration as that in the above method. The difference was that: 5 µM IN10018 was added to each well, the drugs were mixed, and the plate was cultured in a 5% CO2 incubator at 37 °C for 72 hours.
After 72 hours of drug action, the cells were observed under a microscope. 10 µl of CCK8 detection reagent (Cellorlab, classification number: CX001M, batch number: 2571100) was added to each well, and the plate was incubated in a 5% CO2 incubator at 37 °C for 2-4 hours. Then the plate was read using microplate reader OD450 ([…]).

For test [3], the system named is mouse colon cancer CT26 cells. Description: Docetaxel/Eribulin/Paclitaxel and Defactinib: microscopy and CRT/Annexin-V/PI flow cytometry. As to conditions: 48 hours, Defactinib 5 µM, Docetaxel 0.3 µM, Eribulin 0.3 µM, Paclitaxel 6 µM, alone or combined with Defactinib. As to the method: CT26 cells were cultured in monolayer in vitro under the following conditions: RPMI-1640 medium with 10% fetal bovine serum, 37°C, 5% CO2. Trypsin was used for routine digestion and passage treatment two to three times a week. When the cells were in the exponential growth phase and the adherent confluence reached 80%-90%, the cells were harvested and plated.
CT26 cells were digested with trypsin, and then the cells were collected and counted. Based on the counting results, the cells were diluted with the corresponding complete culture medium to a concentration of 50,000 cells per milliliter. Then the cells were plated in 12-well cell culture plates, with 2 ml of cell suspension per well, i.e., 100,000 cells.
as §1
After 24 hours of plating, the test compounds Docetaxel, Eribulin, Paclitaxel and Defactinib were added to different wells, respectively.
as §2
The cells were washed twice with flow buffer (DPBS + 2% FBS). 0.5 µL of AF647 Anti-Calreticulin Antibody was added to each well, and mixed well. The cells were incubated at 4°C in the dark for 20 min. After washing once with flow buffer, 195 µL of Annexin-V-FITC binding solution was added, and the cells were gently mixed well. 5 µL of Annexin-V-FITC antibody was added. After further mixing, 10 µL of PI dye was added and mixed well. The cells were incubated at room temperature in the dark for 15 min. The cells were then subjected to flow cytometry.
as §3

Test [4] deals with SK-OV-3 cells. The test can be described thus: FAK silencing combined with Docetaxel, Calreticulin (ICD target) by flow cytometry. As to conditions: SK-OV-3 cells transfected with FAK siRNA 50 nM for 24 hours, then 1 µM Docetaxel 48 hours; vs control siRNA. As for the experimental part: • 1. FAK silencing combined with Docetaxel promotes apoptosis of ovarian cancer cells […] The siRNA technology was used in the in vitro assay to reduce the expression level of FAK, and combined with Docetaxel for 48 hours; flow cytometry was used to detect apoptosis in control (DMSO) and FAK silenced cells • 2. FAK silencing combined with Docetaxel can effectively promote the production of ICD in ovarian cancer cells SK-OV-3 The siRNA technology was used in the in vitro assay to reduce the expression level of FAK, and combined with Docetaxel for 48 hours. Flow cytometry was used to detect the expression of Calreticulin, the main target of ICD.
Assay antibodies: recombinant Alexa Fluor® 647 fluorescent Anti-Calreticulin antibody (Abcam, ab196159), Annexin V apoptosis detection kit (Invitrogen, A35110).
FAK siRNA was provided by Gene Pharma, and the sequence is shown in the following table: • F: […]; • R: […]
• 1. […] After the transfection for 24 hours, the cells were treated with 0.3 µM or 1 µM of Docetaxel for 48 hours, respectively. The cells were stained using Annexin V kit and detected by flow cytometry. The apoptotic values were counted, compared with those of the control group, and plotted using Graphpad 8.0. […] The cells were fluorescent stained with Calreticulin antibody, and the staining results were analyzed by flow cytometry.

Turning to `CC(=O)O[C@@]12CO[C@@H]1C[C@H](O)[C@@]1(C)C(=O)[C@H](O)C3=C(C)[C@@H](OC(=O)[C@H](O)[C@@H](NC(=O)OC(C)(C)C)c4ccccc4)C[C@@](O)([C@@H](OC(=O)c4ccccc4)[C@H]21)C3(C)C` [Docetaxel], the “apoptosis (Annexin V kit)” value with SK-OV-3 cells [1] was “significantly enhanced”. Also, the “cell status (cell death) under a microscope” value in test [2] and in test [3] was “obvious” in each case. Moreover, the IC50 in the test on colon cancer CT26 cells is 190 nM. Also, the “release and exposure of Calreticulin” value with SK-OV-3 cells [4] is recorded as “significantly enhanced”.

The IC50 is the concentration at which inhibition is half-maximal. Lower therefore signals inhibition by little substance.

The values are drawn from patent EP4578449A1, “PHARMACEUTICAL COMBINATION OF FAK INHIBITOR AND MICROTUBULE INHIBITOR AND USE THEREOF” (Inxmed (Nanjing) Co., Ltd., priority 2022, dated 2024).
